The source of these data is patent EP4471048A1, “PEPTIDE INHIBITORS OF INTERLEUKIN-23 RECEPTOR” (Zealand Pharma A/S, priority 2023, dated 2024).

Where a SMILES comes first, the peptide text is derived from it. Bridges are numbered along the chain shown (N, C = ends). [ ]: non-standard residue; d: D form. 2Nal = N[C@@H](Cc1ccc2ccccc2c1)C(=O)O; AEF = NCCOc1ccc(C[C@H](N)C(=O)O)cc1; 3Pal = N[C@@H](Cc1cccnc1)C(=O)O; Lys(Me) = CNCCCC[C@H](N)C(=O)O; αMeL = CC(C)C[C@](C)(N)C(=O)O; Orn = NCCC[C@H](N)C(=O)O; Dab = NCC[C@H](N)C(=O)O; βAla = NCCC(=O)O

The target of data set [1] is T1, human IL-23R (Homo sapiens, UniProt Q5VWK5).
T1 sequence (Q5VWK5 22-629): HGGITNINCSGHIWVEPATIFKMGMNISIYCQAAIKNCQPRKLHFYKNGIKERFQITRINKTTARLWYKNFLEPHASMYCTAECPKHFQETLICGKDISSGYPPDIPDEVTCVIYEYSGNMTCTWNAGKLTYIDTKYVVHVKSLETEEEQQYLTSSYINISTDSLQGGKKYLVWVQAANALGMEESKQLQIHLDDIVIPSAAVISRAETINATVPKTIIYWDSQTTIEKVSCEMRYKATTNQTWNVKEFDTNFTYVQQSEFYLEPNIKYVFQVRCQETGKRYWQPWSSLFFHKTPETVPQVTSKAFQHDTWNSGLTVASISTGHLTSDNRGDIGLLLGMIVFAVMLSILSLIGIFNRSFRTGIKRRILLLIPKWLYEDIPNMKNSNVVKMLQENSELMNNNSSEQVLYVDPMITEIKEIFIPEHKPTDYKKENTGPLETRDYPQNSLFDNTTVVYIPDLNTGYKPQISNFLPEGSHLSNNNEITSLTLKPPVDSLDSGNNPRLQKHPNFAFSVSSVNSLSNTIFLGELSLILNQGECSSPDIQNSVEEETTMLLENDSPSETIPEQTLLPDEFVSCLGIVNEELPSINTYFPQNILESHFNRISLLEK
Nature of the data set: biochemical. The conditions noted are these: for Emax: read-out: % displacement (hIL-23R NIuc). In short, it runs like this:
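Membranes from HEK293 cells stably expressing Nluc-tagged human IL-23R were incubated 2 h at room temperature with test compound and a fluorophore-labelled tracer. After substrate addition, loss of BRET (TAMRA over luciferase emission) reported tracer displacement. A 4PL fit gave IC50 values.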

Data set [2] in a line: Peptide stability in simulated intestinal fluid (SIF). It counts as in vitro ADME. The conditions noted are these: 37 °C, porcine pancreatin; for remaining at 1 h, 10 µM / remaining at 4 h, 10 µM: pig; for remaining at 1 h, 10 µM: pH 6.8, 1 h. How it is done:
(§1) SGF was prepared by dissolving sodium chloride (0.2 g) in 50 mL of water. A volume of 0.7 mL of 10 M HCl was added to adjust the pH of the solution to 1.2 and the volume made up to 100 mL with water. […] SIF was prepared by dissolving monobasic potassium phosphate (0.68 g) in 50 mL of water and adjusting the pH to 6.8 with 1 M NaOH. The volume was subsequently made up to 100 mL with water. 200 mg porcine pancreatin (P1625, Sigma Aldrich) was gently dissolved into 20 mL preheated (37 °C) solution (10 g/L) immediately prior to the incubation.
(§2) The incubation was performed at 37 °C with gentle shaking. […] After the last timepoint, the sampling plate was mixed for 10 min on a shaking table and centrifuged 10 min at 2200 g. 70 µL resulting supernatant was diluted with 150 µL water, mixed and centrifugated before analysis by liquid chromatography high resolution mass spectrometry. […] Percent remaining at each timepoint was calculated relative to timepoint zero based on absolute peak areas.
Compounds with a SIF stability (after 4 h) above 70% are considered highly SIF stable.

Data set [3] can be described thus: Peptide stability in simulated gastric fluid (SGF). To be noted: pig, simulated gastric fluid (SGF) with porcine pepsin (3.2 g/L), pH 1.2, 10 µM, 37 °C, porcine pepsin; for remaining at 1 h, 10 µM: pH 1.2, 1 h, read-out: SGF (% remaining 1 h); for remaining at 4 h, 10 µM: pH 1.2, 4 h, read-out: SGF (% remaining 4 h). It counts as in vitro ADME. Here is the method: as §1, §2
Compounds with a SGF stability (after 4 h) above 70% are considered highly SGF stable. […] Table 3-4: SGF data

Setting [4] is: pH 6.8, 4 h, read-out: SIF (% remaining 4 h).
The mark [5] stands for this setting: SAR tables, % peptide remaining, pH 6.8, 4 h, read-out: SIF (% after 4 h).

For orientation: IC50 means the concentration needed to halve the response being measured. Low values mean greater potency, high ones weaker potency. `CC[C@H](C)[C@@H]1NC(=O)[C@@H]2CCCCNC(=O)CC[C@@H](C(=O)NCC(=O)N[C@H](Cc3cccnc3)C(N)=O)NC(=O)[C@](C)(C(C)C)NC(=O)[C@H](Cc3ccc4ccccc4c3)NC(=O)[C@H](Cc3ccc(C)cc3)NC(=O)[C@H](CCC(=O)N2)NC(=O)[C@H](CCC(N)=O)NC(=O)[C@H](Cc2c[nH]c3ccccc23)NC(=O)[C@H](C(C)C)NC1=O` [Compound 19, K(1c)(6c)^†IVWQE(6c)[F(4-Me)][2-Nal][2-Me-Val]E(1c)G[{d}3-(3-Pyridyl)-Ala]-[NH2]]: in data set [1], the IC50 stood at 37 nM and the Emax is 103%. The remaining at 1 h, 10 µM in data set [2] is 90%. Also, the remaining at 4 h, 10 µM in data set [2] (setting [4]) was 27%. Also, in data set [3], the remaining at 1 h, 10 µM was 78% and the remaining at 4 h, 10 µM was 6%.
`CC[C@H](C)[C@@H]1NC(=O)[C@@H]2CCCCNC(=O)CC[C@@H](C(=O)N[C@@H](Cc3cnc[nH]3)C(=O)N[C@@H](Cc3cccnc3)C(=O)NC)NC(=O)[C@](C)(CC(C)C)NC(=O)[C@H](Cc3ccc4ccccc4c3)NC(=O)[C@H](Cc3ccc(OCCN)cc3)NC(=O)[C@H](CCC(=O)N2)NC(=O)[C@H](CCC(N)=O)NC(=O)[C@H](Cc2c[nH]c3ccccc23)NC(=O)[C@H](C(C)C)NC1=O` [Compound 69, K(1c)(6c)^†IVWQE(6c)[Y(2-aminoethoxy)][2-Nal][2-Me-Leu]E(1c)H[3-(3-Pyridyl)-Ala]-[NHMe]]: in data set [1], the midpoint of inhibition, the IC50, lay at 0.12 nM and the Emax came out at 101%. For the same compound, the remaining at 1 h, 10 µM in data set [2] is 89%. In addition, in data set [2] (setting [5]), the remaining at 4 h, 10 µM was 33%. In addition, in data set [3], the remaining at 1 h, 10 µM was 112% and the remaining at 4 h, 10 µM is 102%.
Regarding `CC[C@H](C)[C@@H]1NC(=O)[C@@H]2CCCCNC(=O)CC[C@@H](C(=O)N[C@@H](Cc3cnc4ccccc4c3)C(=O)N[C@@H](Cc3cccnc3)C(=O)NC)NC(=O)[C@](C)(CC(C)C)NC(=O)[C@H](Cc3ccc4ccccc4c3)NC(=O)[C@H](Cc3ccc(OCCN)cc3)NC(=O)[C@H](CCC(=O)N2)NC(=O)[C@H](CCC(N)=O)NC(=O)[C@H](Cc2c[nH]c3ccccc23)NC(=O)[C@H](C(C)C)NC1=O` [Compound 71, K(1c)(6c)^†IVWQE(6c)[Y(2-aminoethoxy)][2-Nal][2-Me-Leu]E(1c)[3-(3-Quinolinyl)-Ala][3-(3-Pyridyl)-Ala]-[NHMe]], in data set [1], the “% displacement (hIL-23R NIuc)” value is 100%. For the same compound, the IC50 in data set [1] is 0.084 nM. In addition, the “SIF (% remaining 4 h)” value in data set [2] (10 µM, pH 6.8, 4 h) is on record as 6%. Also, the remaining at 1 h, 10 µM was 55% in data set [2] and 100% in data set [3]. Also, the remaining at 4 h, 10 µM is 6% in data set [2] (setting [5]) and 100% in data set [3].
Take `CC[C@H](C)[C@@H]1NC(=O)[C@@H]2CCCCNC(=O)CC[C@@H](C(=O)N[C@@H](Cc3cn(C)cn3)C(=O)N[C@@H](Cc3cccnc3)C(=O)NC)NC(=O)[C@](C)(CC(C)C)NC(=O)[C@H](Cc3ccc4ccccc4c3)NC(=O)[C@H](Cc3ccc(OCCN)cc3)NC(=O)[C@H](CCC(=O)N2)NC(=O)[C@H](CCC(N)=O)NC(=O)[C@H](Cc2c[nH]c3ccccc23)NC(=O)[C@H](C(C)C)NC1=O` [Compound 73, K(1c)(6c)^†IVWQE(6c)[Y(2-aminoethoxy)][2-Nal][2-Me-Leu]E(1c)[H(1-Me)][3-(3-Pyridyl)-Ala]-[NHMe]]: in data set [1], the “% displacement (hIL-23R NIuc)” value was 102% and the IC50 came to 0.12 nM. The remaining at 1 h, 10 µM in data set [2] was 11%. Further, the remaining at 4 h, 10 µM in data set [2] (setting [4]) is 0%. Further, in data set [3], the remaining at 1 h, 10 µM was 100% and the remaining at 4 h, 10 µM was 99%.
Take `CNC(=O)[C@H](Cc1cccnc1)NC(=O)[C@H](Cc1cnc[nH]1)NC(=O)[C@@H]1CCC(=O)NCCCC[C@@H]2NC(=O)CC[C@H](NC(=O)[C@H](CCC(N)=O)NC(=O)[C@H](Cc3c[nH]c4ccccc34)NC(=O)CCNC2=O)C(=O)N[C@@H](Cc2ccc(OCCN)cc2)C(=O)N[C@@H](Cc2ccc3ccccc3c2)C(=O)N[C@@](C)(CC(C)C)C(=O)N1` [Compound 86, K(1c)(6c)^†[3-Aminopropanoyl]WQE(6c)[Y(2-aminoethoxy)][2-Nal][2-Me-Leu]E(1c)H[3-(3-Pyridyl)-Ala]-[NHMe]]: in data set [1], the “% displacement (hIL-23R NIuc)” value was 101% and inhibition was half-maximal at 0.049 nM (IC50). For the same compound, the remaining at 1 h, 10 µM in data set [2] is 77%. For the same compound, the remaining at 4 h, 10 µM in data set [2] (setting [4]) is 36%. Besides, in data set [3], the remaining at 1 h, 10 µM is 94% and the remaining at 4 h, 10 µM is 111%.
In the case of `CC[C@H](C)[C@@H]1NC(=O)[C@@H]2CCCCNC(=O)CC[C@@H](C(=O)N[C@H](Cc3cnc[nH]3)C(=O)N[C@@H](Cc3cccnc3)C(=O)NC)NC(=O)[C@](C)(CC(C)C)NC(=O)[C@H](Cc3ccc4ccccc4c3)NC(=O)[C@H](Cc3ccc(OCCN)cc3)NC(=O)[C@H](CCC(=O)N2)NC(=O)[C@H](CCC(N)=O)NC(=O)[C@H](Cc2c[nH]c3ccccc23)NC(=O)[C@H](C(C)C)NC1=O` [Compound 70, K(1c)(6c)^†IVWQE(6c)[Y(2-aminoethoxy)][2-Nal][2-Me-Leu]E(1c)[{d}H][3-(3-Pyridyl)-Ala]-[NHMe]], the IC50 in data set [1] worked out at 0.41 nM. For the same compound, the Emax in data set [1] was 101%. In addition, the remaining at 1 h, 10 µM was 101% in data set [2] and 102% in data set [3]. Also, the figures for the remaining at 4 h, 10 µM in data set [2] (setting [5]) and in data set [3] were 72% and 95%, respectively.
Regarding `CNC(=O)[C@H](Cc1cccnc1)NC(=O)[C@H](CCN)NC(=O)[C@@H]1CCC(=O)NCCC[C@@H]2NC(=O)CC[C@H](NC(=O)[C@H](CCC(N)=O)NC(=O)[C@H](Cc3c[nH]c4ccccc34)NC(=O)CCNC2=O)C(=O)N[C@@H](Cc2ccc(OCCN)cc2)C(=O)N[C@@H](Cc2ccc3ccccc3c2)C(=O)N[C@@](C)(CC(C)C)C(=O)N1` [Compound 91, [Orn](1c)(6c)^†[3-Aminopropanoyl]WQE(6c)[Y(2-aminoethoxy)][2-Nal][2-Me-Leu]E(1c)[Dab][3-(3-Pyridyl)-Ala]-[NHMe]] ([Orn][βAla]WQE[AEF][2Nal][αMeL]E[Dab][3Pal]-NHMe; lactam 1-9, N-5), in data set [1], the IC50 was 0.35 nM and the Emax is 100%. Further, the remaining at 1 h, 10 µM in data set [2] was 98%. Moreover, the remaining at 4 h, 10 µM in data set [2] (setting [4]) was 57%. In data set [3], the remaining at 1 h, 10 µM was 116% and the remaining at 4 h, 10 µM is 115%.
As to `CNC(=O)[C@H](Cc1cccnc1)NC(=O)[C@H](CCN)NC(=O)[C@@H]1CCC(=O)N[C@H]2CCCCNC(=O)CC[C@H](NC(=O)[C@H](CCC(N)=O)NC(=O)[C@H](Cc3c[nH]c4ccccc34)NC(=O)CNC2=O)C(=O)N[C@@H](Cc2ccc(OCCN)cc2)C(=O)N[C@@H](Cc2ccc3ccccc3c2)C(=O)N[C@@](C)(CC(C)C)C(=O)N1` [Compound 104, [iso-Lys](1c)^†(6c)GWQE(6c)[Y(2-aminoethoxy)][2-Nal][2-Me-Leu]E(1c)[Dab][3-(3-Pyridyl)-Ala]-[NHMe]], in data set [1], inhibition was half-maximal at 0.5 nM (IC50) and the Emax came out at 101%. The remaining at 1 h, 10 µM in data set [2] was 106%. Further, in data set [2] (setting [4]), the remaining at 4 h, 10 µM was 89%. Besides, in data set [3], the remaining at 1 h, 10 µM is 100% and the remaining at 4 h, 10 µM is 106%.
In the case of `CC[C@H](C)[C@@H]1NC(=O)[C@@H]2CCC(=O)N(C)CCCC[C@@H](C(=O)N[C@@H](CCN)C(=O)N[C@@H](Cc3cccnc3)C(=O)NC)NC(=O)[C@](C)(CC(C)C)NC(=O)[C@H](Cc3ccc4ccccc4c3)NC(=O)[C@H](Cc3ccc(OCCN)cc3)NC(=O)[C@H](CCC(=O)N2)NC(=O)[C@H](CCC(N)=O)NC(=O)[C@H](Cc2c[nH]c3ccccc23)NC(=O)[C@H](C(C)C)NC1=O` [Compound 74, E(1c)(6c)^†IVWQE(6c)[Y(2-aminoethoxy)][2-Nal][2-Me-Leu][K(Me)](1 c)[Dab][3-(3-Pyridyl)-Ala]-[NHMe]] (EIVWQE[AEF][2Nal][αMeL][Lys(Me)][Dab][3Pal]-NHMe; lactam 1-10, N-6), the Emax in data set [1] turned out to be 99%. For the same compound, the remaining at 1 h, 10 µM in data set [2] is 91%; in data set [3] it was 94%. Moreover, the remaining at 4 h, 10 µM in data set [2] (setting [4]) is 89%; in data set [3], 92%.
